pIC50: −log10 of the molar value. ≈ marks a conversion by molar mass, not a printed value.
Columns and labels:
HIV-1 IIIB = assay: Antiviral activity assay (MTT viability of infected MT4 cells); type: cell-based; conditions: Human immunodeficiency virus 1, 120 h, HIV-1 IIIB-infected MT4 cells, 5 days incubation, N = 4
Text: The potential ability to enhance the oral permeability of the antiretroviral drugs LPV and EFV may lead to increased drug absorption and a subsequent decrease in oral dose required to treat HIV patients. Drug permeation through the gut model employed here provides no information about whether free drug or intact nanoemulsions have traversed the epithelium. The potential for nanoemulsions entering the systemic circulation after in vivo absorption necessitates assessment of antiviral activity of the ARV-containing droplets and this was undertaken using HIV-1 IIIB-infected MT4 cells. […] Activity against the virus was determined by using an MTT cell viability assay to assess the number of live cells as viral replication leads to cell death.
Fig. 4 Antiviral activity of aqueous (circles) and nanoemulsion (triangles) formulations containing (A) EFV; and (B) LPV after 5 days incubation with MT4 cells and HIV-1 IIIB. Viral kill was derived by using MTT assay to quantify the metabolic activity of the MT4 cells, using this a proxy of cellular viability. […] Data expressed as ± SEM, N = 4. […]
(§1) and immediately frozen at -40°C for subsequent batch analysis via HPLC. Sink conditions were determined as being satisfied when <10% of starting concentration had permeated. Papp was determined with the following equation: […]

[1] = Drug solubility in natural oils; type: physicochemical; conditions: oil or lipid
Caco-2 monolayers = assay: Caco-2 transcellular permeation model (transwell); type: in vitro ADME, human
Procedure: (§2) The apparent permeability (Papp) of the candidate drug-loaded nanoemulsions were determined using the Caco-2 cells after forming a confluent monolayer, with tight junctions between the cells (confirmed by TEER), on a porous transwell membrane; this is a widely-used model for oral absorption.[34] Within this assay, the cells polarise to present microvilli on the gut (apical; A) side of the cells,[35] reproducing the morphology and function of the small intestine. The blood (basolateral; B) side of the cells models the interface with the systemic circulation. […]
(§3) droplets were below 300 nm in diameter.
(§4) During the 2 minutes, the vial was […]
(§5) to achieve a creamy emulsion. […]
(§6) Caco-2 Transcellular Permeation Model
(§7) After this time, culture media was […]
as §1
(§8) Where A is the concentration in the sample, T is the time in seconds at which the sample was collected, V is the total volume of sample contained in the chamber being sampled, S is the initial starting concentration of the drug and 0.3 is the surface area in cm2 of the transwell insert on which the Caco-2 […]
(§9) High Performance Liquid Chromatography
(§10) 200 μL of sample (thawed from -40°C storage) was added to 1 ml of HPLC grade acetonitrile in a universal tube and vortexed for 30 seconds. The universal tubes where then centrifuged for 5 minutes at 4°C at 13,300 rpm, after which the supernatant was transferred to fresh glass tubes. These tubes were placed in a vacuum centrifuge drier and heated to 35°C to remove excess acetonitrile and dry down the sample to a pellet. Pellets were then re-suspended in 200 μL fresh 20% HPLC grade acetonitrile, 80% HPLC grade water, and transferred to 1.8 ml HPLC vials and sealed for HPLC analysis.
(§11) The mobile phase (C) consisted of 95% water and 5% acetonitrile, with 5mM final concentration of ammonium formate. The elution buffer (D) consisted of 90% acetonitrile and 10% water with no ammonium formate. A calibration curve was produced using a 1:2 dilution from 20,000 ng/ml to 39 ng/ml, with separate quality control samples at 600 ng/ml, 3000 ng/ml and 15,000 ng/ml. The initial starting conditions of each run were 100% C, changing to 92% D / 8% C after 30 seconds, holding at this percentage for 5 minutes before raising to 100% D for 1 minute. The final 2 minutes of the run returned the column to 100% of C, ready for the injection of the next sample. The EFV was eluted at around 4.3 minutes into the run. The lower limit of quantification was 78 ng/mL, with intraday variability <20% and inter day variability <15%. […]
(§12) Plates were incubated for 5 days at 37°C and 5%
(§13) CO2. Activity of both aqueous and nanoformulations against HIV-1 IIIB was determined by quantifying the amount of live cells in each condition by means of an MTT cell viability assay. Concentrations of […]
(§14) was due solely to HIV infection.

[2] = Caco-2 transcellular permeation model (transwell); type: in vitro ADME, human; conditions: human, Caco-2; for Papp A→B at 2 h, 10 μM / Papp B→A at 2 h, 10 μM: aq/DMSO solution or castor oil nanoemulsion, N=4
Procedure: as §2, §3, §4, §5, §6, §7, §1, §8, §9, §10, §11, §12, §13, §14

MTT cytotoxicity assay = type: cell-based; conditions: human, Caco-2 cells, aqueous/DMSO solution
Procedure: The inherent cytotoxicity of the branched copolymer was evaluated using the CellTiterGlo® ATP assay whilst the stabilised nanoemulsions were studied using a 3-(4,5-dimethylthiazol-2-yl)-2,5-diphenyltetrazolium bromide (MTT) assay which employs the reduction of MTT to formazan to establish changes in mitochondrial enzyme activity (Fig. S5 ^†).
Cellular Cytotoxicity Assay
Approximately 100,000 cells per 100 L were seeded per well in a 96 well tissue culture plate, leaving
24 hours for cells to adhere to the plate. After this 24-hour period, media was aspirated from all wells
and replaced with fresh complete culture media containing appropriate sample concentrations. A
maximal drug concentration of 10 μM was used, decreasing in a 1:1 dilution series. For blank emulsion
samples were an equivalent volume of nanoemulsion was used to prepare the sample, such that the
volume of nanoemulsion was the same as those in the drug loaded nanoemulsion samples. Plates
were left for between 1 and 5 days, after which time 20 L of 5 mg/mL MTT reagent (3-(4,5-
dimethylthiazol-2-yl)-2,5-diphenyltetrazolium bromide) was added to every well and left for 2 hours. […]
formazan crystals. Plates were then read on a Tecan GENios plate reader (Tecan Group, Manndorf,
Switzerland) reader set to absorbance mode, with wavelength at 560 nm.

| SMILES | pIC50 (HIV-1 IIIB) | solubility ([1]; in castor oil) | solubility ([1]; in peanut oil) | solubility ([1]; in soybean oil) | Difference in permeation, emulsion form versus aqueous DMSO control (Caco-2 monolayers; Caco-2) | efflux ratio at 1 h [2] | efflux ratio at 2 h [2] | Papp A→B at 2 h, 10 μM [2] | Papp B→A at 2 h, 10 μM [2] | CC50 (MTT cytotoxicity assay) | Permeation in emulsion form relative to control within aqueous DMSO vehicle (Caco-2 monolayers; human, Caco-2, 2 h, 10 μM) |
| --- | --- | --- | --- | --- | --- | --- | --- | --- | --- | --- | --- |
| O=C1Nc2ccc(Cl)cc2[C@@](C#CC2CC2)(C(F)(F)F)O1 [EFV, efavirenz] | ~5.90 | ≥ 50 mg/mL | ≥ 50 mg/mL | ≥ 50 mg/mL | very limited difference | 3.98 | 3.11 | 8.21 ×10⁻⁶ cm/s | 25.5 ×10⁻⁶ cm/s | 55 µM | – |
| Cc1cccc(C)c1OCC(=O)N[C@@H](Cc1ccccc1)[C@@H](O)C[C@H](Cc1ccccc1)NC(=O)[C@H](C(C)C)N1CCCNC1=O [LPV, lopinavir] | 6.34 | ~25 mg/mL (≈ 39.8 mM) | < 12 mg/mL | < 12 mg/mL | – | 1.11 | 4.78 | 2.7 ×10⁻⁶ cm/s | 12.9 ×10⁻⁶ cm/s | – | approximately 10 fold |
